Test results published in ChEMBL document CHEMBL1201862, “PubChem BioAssay data set” (2004).
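Results reflect a 48-hour exposure of cells in 96-well plates to compound at five concentrations. GI50 = concentration required for 50% inhibition of growth.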 Active and inactive are the calls of the source. Cut-off read from the data, not from the text of the source: active = GI50 up to about 1.1 µM and inactive = higher.

Legend:
Assay in all cases: NCI anticancer screen, dose series, 48 h
[1] = test system: 786-0
[2] = test system: A498
[3] = test system: A549
[4] = test system: ACHN
[5] = test system: BT-549
[6] = test system: CAKI-1
[7] = test system: CCRF-CEM
[8] = test system: COLO 205
[9] = test system: DU-145
[10] = test system: EKVX
[11] = test system: HCC 2998
[12] = test system: HCT-116
[13] = test system: HCT-15
[14] = test system: HL-60
[15] = test system: HOP-62
[16] = test system: HOP-92
[17] = test system: HT-29
[18] = test system: Hs-578T
[19] = test system: IGROV-1
[20] = test system: K562
[21] = test system: KM12
[22] = test system: LOX IMVI
[23] = test system: M14
[24] = test system: MDA-MB-231
[25] = test system: MDA-MB-435
[26] = test system: MDA-N
[27] = test system: MOLT-4
[28] = test system: Malme-3M
[29] = test system: NCI-H226
[30] = test system: NCI-H23
[31] = test system: NCI-H460
[32] = test system: NCI/ADR-RES
[33] = test system: OVCAR-3
[34] = test system: OVCAR-4
[35] = test system: OVCAR-5
[36] = test system: OVCAR-8
[37] = test system: PC-3
[38] = test system: SK-MEL-28
[39] = test system: SK-MEL-2
[40] = test system: SK-MEL-5
[41] = test system: SN12C
[42] = test system: SNB-19
[43] = test system: SNB-75
[44] = test system: SR
[45] = test system: SW-620
[46] = test system: T47D
[47] = test system: TK-10
[48] = test system: U-251
[49] = test system: UACC-257
[50] = test system: UACC-62
[51] = test system: UO-31
[52] = test system: MCF7
[53] = test system: RPMI-8226
[54] = test system: RXF 393
[55] = test system: SF-268
[56] = test system: SF-539
[57] = test system: SK-OV-3
[58] = test system: NCI-H522
[59] = test system: SF-295

Measured: GI50

COc1ccc(CCCNC(=O)Cc2cc(OC)c(OC)cc2CO)cc1OC
> 100 µM: [13]
inactive: [1] > 100 µM | [2] > 100 µM | [3] > 100 µM | [4] > 100 µM | [5] > 100 µM | [6] > 100 µM | [7] > 100 µM | [8] > 100 µM | [9] > 100 µM | [10] > 100 µM | [11] > 100 µM | [12] > 100 µM | [14] > 100 µM | [15] > 100 µM | [16] > 100 µM | [17] > 100 µM | [18] > 100 µM | [19] > 100 µM | [20] > 100 µM | [21] > 100 µM | [22] > 100 µM | [23] > 100 µM | [24] > 100 µM | [25] > 100 µM | [26] > 100 µM | [27] > 100 µM | [28] > 100 µM | [29] > 100 µM | [30] 75 µM | [31] > 100 µM | [32] > 100 µM | [33] > 100 µM | [34] > 100 µM | [35] > 100 µM | [36] > 100 µM | [37] > 100 µM | [38] > 100 µM | [39] > 100 µM | [40] > 100 µM | [41] > 100 µM | [42] > 100 µM | [43] > 100 µM | [44] > 100 µM | [45] > 100 µM | [46] 23.3 µM | [47] > 100 µM | [48] > 100 µM | [49] > 100 µM | [50] > 100 µM | [51] > 100 µM

COc1ccc(/C=C2\N=C(c3ccccc3)OC2=O)cc1OC(C)=O
inactive: [1] 56 µM | [2] > 100 µM | [3] > 100 µM | [4] 33.6 µM | [5] > 100 µM | [7] 27.7 µM | [8] > 100 µM | [9] > 100 µM | [11] 93.5 µM | [12] 58.9 µM | [14] 41.1 µM | [15] 94.2 µM | [16] 54.1 µM | [17] 47.3 µM | [18] 26.3 µM | [19] 82.8 µM | [20] 44.9 µM | [22] 51.3 µM | [23] 99.8 µM | [52] 53.2 µM | [24] 46.5 µM | [25] 51.8 µM | [28] 13.5 µM | [29] > 100 µM | [30] 65.6 µM | [31] > 100 µM | [32] > 100 µM | [33] 48.9 µM | [34] 63.1 µM | [35] > 100 µM | [36] 50.4 µM | [37] 31.1 µM | [53] 32 µM | [54] > 100 µM | [55] 27.3 µM | [56] > 100 µM | [38] > 100 µM | [39] 27.5 µM | [40] 63 µM | [57] > 100 µM | [41] > 100 µM | [42] > 100 µM | [43] 52.5 µM | [44] 15.2 µM | [45] 51.4 µM | [46] > 100 µM | [47] > 100 µM | [48] 39.8 µM | [49] > 100 µM | [50] > 100 µM | [51] 58.7 µM
active: [27] 0.615 µM
49.4 µM: [13]

Cc1ccc(NC(=O)/C(Cc2nc3ccc([N+](=O)[O-])cc3nc2O)=N\NC(=O)C[n+]2ccccc2)c(C)c1
49.4 µM: [13]
inactive: [1] 27.9 µM | [3] 23.3 µM | [4] 20.5 µM | [5] > 100 µM | [6] 34.7 µM | [7] 26.6 µM | [8] 43.5 µM | [9] 32.1 µM | [10] 26.7 µM | [11] > 100 µM | [12] 36.2 µM | [14] 30 µM | [15] 38.9 µM | [16] 37.5 µM | [17] > 100 µM | [18] 86.1 µM | [19] 35.4 µM | [21] 74.6 µM | [22] 59 µM | [23] 89.1 µM | [52] 38.5 µM | [24] 18.4 µM | [25] 97.3 µM | [26] > 100 µM | [27] 30.7 µM | [29] 74.6 µM | [30] 65.6 µM | [31] 26.8 µM | [58] 19.4 µM | [32] 40.9 µM | [33] 23.1 µM | [34] 23 µM | [35] > 100 µM | [36] 30.3 µM | [37] 39 µM | [54] 4.06 µM | [55] 67.5 µM | [59] 58.1 µM | [56] 77.1 µM | [38] 77.4 µM | [39] 39.9 µM | [40] 16.9 µM | [57] 22.4 µM | [41] 32.1 µM | [42] 83.4 µM | [43] 97.3 µM | [45] 61.1 µM | [47] 21.2 µM | [48] 53.6 µM | [49] 49.4 µM | [50] 55.1 µM | [51] 18.4 µM
